US5985897A, “Benzothiphene compounds, intermediates, compositions, and methods” (priority 1997, dated 1999)

Experiments:
[1] = tested on: Serum cholesterol; experiment: Serum cholesterol analysis in ovariectomized rats (4-day oral dosing); assay type: in vivo, rat (female Sprague Dawley; settings: for Serum Cholest. % Dec. (decrease versus ovariectomized controls): daily for 4 days, * p < .05
Experimental: (§1) In the examples illustrating the methods, a postmenopausal model was used in which effects of different treatments upon circulating lipids were determined.
(§2) Seventy-five day old female Sprague Dawley rats (weight range of 200 to 225 g) were obtained from Charles River Laboratories (Portage, Mich.). The animals were either bilaterally ovariectomized (OVX) or exposed to a sham surgical procedure at Charles River Laboratories, and then shipped after one week. Upon arrival, they were housed in metal hanging cages in groups of 3 or 4 per cage and had ad libitum access to food (calcium content approximately 0.5%) and water for one week. Room temperature was maintained at 22.2°±1.70° C. with a minimum relative humidity of 40%. The photoperiod in the room was 12 hours light and 12 hours dark.
(§3) Dosing Regimen Tissue Collection. After a one week acclimation period (therefore, two weeks post-OVX) daily dosing with test compound was initiated. 17α-ethynyl estradiol or the test compound were given orally, unless otherwise stated, as a suspension in 1% carboxymethylcellulose or dissolved in 20% cyclodextrin. Animals were dosed daily for 4 days. Following the dosing regimen, animals were weighed and anesthetized with a ketamine:xylazine (2:1, V:V) mixture and a blood sample was collected by cardiac puncture. The animals were then sacrificed by asphyxiation with CO2, the uterus was removed through a midline incision, and a wet uterine weight was determined.
Cholesterol Analysis. Blood samples were allowed to clot at room temperature for 2 hours, and serum was obtained following centrifugation for 10 minutes at 3000 rpm. Serum cholesterol was determined using a Boehringer Mannheim Diagnostics high performance cholesterol assay. Briefly the cholesterol was oxidized to cholest-4-en-3-one and hydrogen peroxide. The hydrogen peroxide was then reacted with phenol and 4-aminophenazone in the presence of peroxidase to produce a p-quinone imine dye, which was read spectrophotemetrically at 500 nm. Cholesterol concentration was then calculated against a standard curve.
Data presented in Table 1 below show comparative results among ovariectomized rats, rats treated with 17α-ethynyl estradiol (EE2; an orally available form of estrogen), and rats treated with certain compounds of the instant invention. […] This uterine response to estrogen is well recognized in the art.
The data presented in Table 1 below reflects the response of 5 to 6 rats per treatment.

[2] = tested on: femur density; experiment: Osteoporosis Test Procedure (femur density, ovariectomized rats); assay type: in vivo, rat; settings: orally administered
Experimental: Following the General Preparation Procedure, infra, the rats are treated daily for 35 days (6 rats per treatment group) and sacrificed by carbon dioxide asphyxiation on the 36th day. The 35 day time period is sufficient to allow maximal reduction in bone density, measured as described herein. At the time of sacrifice, the uteri are removed, dissected free of extraneous tissue, and the fluid contents are expelled before determination of wet weight in order to confirm estrogen deficiency associated with complete ovariectomy. […] The uteri are then placed in 10% neutral buffered formalin to allow for subsequent histological analysis. The right femurs are excised and digitilized x-rays generated and analyzed by an image analysis program (NIH image) at the distal metaphysis. The proximal aspect of the tibiae from these animals are also scanned by quantitative computed tomography. In accordance with the above procedures, compounds of the instant invention and ethynyl estradiol (EE2) in 20% hydroxypropyl β-cyclodextrin are orally administered to test animals. Distal femur metaphysis and proximal tibiae data are compared to intact and ovariectomized test animals. Results are reported as percent protection relative to ovariectomy. Ovariectomy of the test animals causes a significant reduction in femur density compared to intact, vehicle treated controls. […]

[3] = tested on: Eosinophil peroxidase; set-up: species or system rat (female Sprague Dawley, ovariectomized); settings: rat, in vivo
Excerpt: as §2
Dosing Regimen Tissue Collection. […] The animals were then sacrificed by asphyxiation with CO2, the uterus was removed through a midline incision, and a wet uterine weight was determined.
Uterine Eosinophil Peroxidase (EPO) Assay. […] Upon addition of 0.01% hydrogen peroxide and 10 mM O-phenylenediamine (final concentrations) in Tris buffer, increase in absorbance was monitored for one minute at 450 nm. […] The maximal velocity of a 15 second interval was determined over the initial, linear portion of the reaction curve.
As is expressed in the data below, estrogenicity also was assessed by evaluating the adverse response of eosinophil infiltration into the uterus. […]

[4] = tested on: uterus; set-up: species or system rat (female Sprague Dawley, ovariectomized); settings: rat, in vivo, po, 0.1 mg/kg/day
Experimental: as §1, §2
as §3, with “Following the dosing regimen, animals were weighed and anesthetized with a ketamine:xylazine (2:1, V:V) mixture and a blood sample was collected by cardiac puncture.” left out, “determined. […]” for “determined.”

[5] = 0.1 mg/kg PO, negative = increase

Compound | Serum Cholest. % Dec. (decrease versus ovariectomized controls) [1, 5] [%] | Serum Cholest. % Dec. (decrease versus ovariectomized controls) ([1]; 1.0 mg/kg PO) [%] | Serum Cholest. % Dec. (decrease versus ovariectomized controls) ([1]; 10.0 mg/kg PO) [%] | loss of femur density after ovariectomy (in words) [2] | serum cholesterol (in words) ([1]; oral, versus ovariectomized control animals, EE2 at 0.1 mg/kg/day) | Uterine Eosinophil (Vmax), eosinophil peroxidase [3] | eosinophil infiltration into the uterus (in words) [3] | uterine weight (in words) [4]
CCCc1sc2ccccc2c1Oc1ccc(OCCN2CCCCC2)cc1.Cl [Example 7, 3-[4-[2-(1-Piperidinyl)ethoxy]phenoxy]-2-propylbenzo[b]thiophene Hydrochloride] | -11.1 | 41.2 | 46.6 |  |  |  |  | 
Cl.c1ccc2c(Oc3ccc(OCCN4CCCCC4)cc3)c(C3CCCCC3)sc2c1 [Example 11, 3-[4-[2-(1-Piperidinyl)ethoxy]phenoxy]-2-cyclohexylbenzo[b]thiophene Hydrochloride] | 55.8 | 58.9 | 50.2 |  |  |  |  | 
C#C[C@]1(O)CC[C@H]2[C@@H]3CCc4cc(O)ccc4[C@H]3CC[C@@]21C [EE2, 17α-ethynyl estradiol, reference compound] | 76.6 |  |  | prevents this loss | caused a decrease in serum cholesterol | 212.4 | substantial, expected increase in eosinophil infiltration | substantially greater than the uterine weight of ovariectomized test animals
CC(C)c1sc2ccccc2c1Oc1ccc(OCCN2CCCCC2)cc1.Cl [Example 4, 3-[4-[2-(1-Piperidinyl)ethoxy]phenoxy]-2-(2-propyl]benzo[b]thiophene Hydrochloride] | -27.6 | 19.2 | 61.6 |  |  |  |  | 
